Experimental data as given in the supplement of paper PMC10307832.

What was measured:
Test in all cases: relative viability (nuclei count vs DMSO), 5 days (fraction); higher = more cells survive
NCI-H1734 = system: NCI-H1734
Outline: (§1)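 Nuclei were stained with Hoechst during a one-step fixation (final 0.05% Triton X-100, 1% formaldehyde, 1 ug/ml Hoechst) carried out 5 days after dosing, then counted on 4× images. The cells, lung cancer lines in 1536-well plates, had been dosed by pin tool the day after seeding with one drug alone or a fixed anchor-drug dose plus five library-drug doses (not always all listed) in √10 steps. Relative viability is the nuclei count in treated wells divided by that in vehicle wells, and each value is the median of duplicate plates.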

NCI-H1793 = system: NCI-H1793
Outline: as §1

NCI-H1975 = system: NCI-H1975
Outline: as §1

NCI-H2023 = system: NCI-H2023
Outline: as §1

NCI-H2085 = system: NCI-H2085
Outline: as §1

NCI-H2342 = system: NCI-H2342
Outline: as §1

NCI-H358 = system: NCI-H358
Outline: as §1

NCI-H441 = system: NCI-H441
Outline: as §1

NCI-H460 = system: NCI-H460
Outline: as §1

NCI-H838 = system: NCI-H838
Outline: as §1

SK-LU-1 = system: SK-LU-1
Outline: as §1

Q: For `Cc1sc2c(c1C)C(c1ccc(Cl)cc1)=N[C@@H](CC(=O)OC(C)(C)C)c1nnc(C)n1-2` [JQ1] + Nc1nc2[nH]cc(CCc3ccc(C(=O)N[C@@H](CCC(=O)O)C(=O)O)cc3)c2c(=O)[nH]1 [Pemetrexed] (partner 0.2 µM), which relative viability (NCI-H1734; first compound 0.1265 µM) is on record?
A: 0.347

Q: And the relative viability (NCI-H1734; first compound 0.4 µM)?
A: 0.327

Q: What about the relative viability (NCI-H1734; first compound 1.265 µM) of the same compound?
A: 0.342

Q: And the relative viability (NCI-H1734; first compound 4 µM)?
A: 0.283

Q: And the relative viability (NCI-H1793; first compound 0.04 µM)?
A: 0.748

Q: And the relative viability (NCI-H1793; first compound 0.1265 µM)?
A: 0.81

Q: And the relative viability (NCI-H1793; first compound 0.4 µM)?
A: 0.648

Q: What about the relative viability (NCI-H1793; first compound 1.265 µM) of the same compound?
A: 0.661

Q: What about the relative viability (NCI-H1793; first compound 4 µM) of the same compound?
A: 0.78

Q: And the relative viability (NCI-H1975; first compound 0.04 µM)?
A: 0.284

Q: What about the relative viability (NCI-H1975; first compound 0.1265 µM) of the same compound?
A: 0.233

Q: What about the relative viability (NCI-H1975; first compound 0.4 µM) of the same compound?
A: 0.234

Q: And the relative viability (NCI-H1975; first compound 1.265 µM)?
A: 0.19

Q: And the relative viability (NCI-H1975; first compound 4 µM)?
A: 0.173

Q: And the relative viability (NCI-H2023; first compound 0.04 µM)?
A: 0.231

Q: What about the relative viability (NCI-H2023; first compound 0.1265 µM) of the same compound?
A: 0.195

Q: And the relative viability (NCI-H2023; first compound 0.4 µM)?
A: 0.139

Q: And the relative viability (NCI-H2023; first compound 1.265 µM)?
A: 0.101

Q: And the relative viability (NCI-H2023; first compound 4 µM)?
A: 0.109

Q: What about the relative viability (NCI-H2085; first compound 0.04 µM) of the same compound?
A: 0.738

Q: What about the relative viability (NCI-H2085; first compound 0.1265 µM) of the same compound?
A: 0.721

Q: And the relative viability (NCI-H2085; first compound 0.4 µM)?
A: 0.668

Q: And the relative viability (NCI-H2085; first compound 1.265 µM)?
A: 0.403

Q: And the relative viability (NCI-H2085; first compound 4 µM)?
A: 0.374

Q: And the relative viability (NCI-H2342; first compound 0.04 µM)?
A: 0.805

Q: And the relative viability (NCI-H2342; first compound 0.1265 µM)?
A: 0.73

Q: What about the relative viability (NCI-H2342; first compound 0.4 µM) of the same compound?
A: 0.852

Q: What about the relative viability (NCI-H2342; first compound 1.265 µM) of the same compound?
A: 0.781

Q: What about the relative viability (NCI-H2342; first compound 4 µM) of the same compound?
A: 0.617

Q: What about the relative viability (NCI-H358; first compound 0.04 µM) of the same compound?
A: 0.185

Q: What about the relative viability (NCI-H358; first compound 0.1265 µM) of the same compound?
A: 0.198

Q: What about the relative viability (NCI-H358; first compound 0.4 µM) of the same compound?
A: 0.199

Q: And the relative viability (NCI-H358; first compound 1.265 µM)?
A: 0.16

Q: What about the relative viability (NCI-H358; first compound 4 µM) of the same compound?
A: 0.153

Q: And the relative viability (NCI-H441; first compound 0.04 µM)?
A: 0.271

Q: And the relative viability (NCI-H441; first compound 0.1265 µM)?
A: 0.263

Q: And the relative viability (NCI-H441; first compound 0.4 µM)?
A: 0.273

Q: And the relative viability (NCI-H441; first compound 1.265 µM)?
A: 0.213

Q: What about the relative viability (NCI-H441; first compound 4 µM) of the same compound?
A: 0.186

Q: What about the relative viability (NCI-H460; first compound 0.04 µM) of the same compound?
A: 0.0603

Q: What about the relative viability (NCI-H460; first compound 0.1265 µM) of the same compound?
A: 0.0567

Q: What about the relative viability (NCI-H460; first compound 0.4 µM) of the same compound?
A: 0.0624

Q: What about the relative viability (NCI-H460; first compound 1.265 µM) of the same compound?
A: 0.0611

Q: What about the relative viability (NCI-H460; first compound 4 µM) of the same compound?
A: 0.07

Q: And the relative viability (NCI-H838; first compound 0.04 µM)?
A: 0.24

Q: And the relative viability (NCI-H838; first compound 0.1265 µM)?
A: 0.167

Q: And the relative viability (NCI-H838; first compound 0.4 µM)?
A: 0.176

Q: And the relative viability (NCI-H838; first compound 1.265 µM)?
A: 0.177

Q: And the relative viability (NCI-H838; first compound 4 µM)?
A: 0.17

Q: And the relative viability (SK-LU-1; first compound 0.04 µM)?
A: 0.974

Q: And the relative viability (SK-LU-1; first compound 0.1265 µM)?
A: 0.766

Q: What about the relative viability (SK-LU-1; first compound 0.4 µM) of the same compound?
A: 0.607

Q: And the relative viability (SK-LU-1; first compound 1.265 µM)?
A: 0.278

Q: What about the relative viability (SK-LU-1; first compound 4 µM) of the same compound?
A: 0.181
